Test [1] relates to T-type calcium channels (Cav3.1, Cav3.2, Cav3.3). The test is described as follows: Whole-cell patch-clamp screen on recombinant T-type calcium channels in tsA-201 cells. It counts as cell-based, human. The following applies: 10 μM; held at -100 mV, pulse to -20 mV; barium current; three Cav3 isoforms. From the text:
Studies have shown that several endocannabinoids and phytocannabinoids have direct inhibitory actions on T-type voltage-gated calcium channels. To determine whether the NMP compounds produced a similar effect, we characterized their actions on transiently expressed T-type calcium channels via whole-cell patch-clamp recordings. Cells were held at -100 mV and barium current was evoked by a depolarizing pulse to -20 mV.
HEK293 cells and CHO cells were used in the radioligand binding assay while tsA-201 cells were used in the electrophysiological study. Human CB2, human 5-HT2A, rat 5-HT2C used in the binding studies were cloned into pcDNA5.0FRT and cell lines were made using the FlpIn system from Invitrogen. tsA-201 cell culture and transient calcium channel transfection were performed as described previously. In brief, tsA-201 cells were transfected using the calcium phosphate method. […]
Whole-cell currents were recorded from tsa-201 cells 2-4 days after transfection. […] Currents were elicited from a holding potential of -100 mV and were measured by conventional whole-cell patch clamp using an Axopatch 200B amplifier in combination with Clampex 9.2 software (Axon Instruments, Foster City, CA). […] Electrophysiological data were analyzed using Clampfit 9.2 (Axon Instruments, Foster City, CA) and GraphPad Prism 5 software (GraphPad Software Inc., San Diego, CA). […]

In test [2] the target is T1, Human CB2 (Homo sapiens, UniProt P34972). Briefly: Radioligand competitive binding, [3H]CP55940, HEK293 cells. Set-up: expressed in transfected cells. The note with it: for Ki: NA: not active at 1 μM, read-out: Mean Ki Human CB2; for Human CB2 (%) primary radioligand competitive binding: ligand 10 μM, HEK293 cells. On the procedure: (§1) HEK293 cells and CHO cells were used in the radioligand binding assay while tsA-201 cells were used in the electrophysiological study. Human CB2, human 5-HT2A, rat 5-HT2C used in the binding studies were cloned into pcDNA5.0FRT and cell lines were made using the FlpIn system from Invitrogen. tsA-201 cell culture and transient calcium channel transfection were performed as described previously. In brief, tsA-201 cells were transfected using the calcium phosphate method. Cav3.1, 3.2 and 3.3 α1 subunits were transfected individually with yellow fluorescent protein as a transfection marker.
(§2) CB1 and CB2 radioligand binding data were obtained using National Institute of Mental Health (NIMH) Psychoactive Drug Screening Program (PDSP) resources as described earlier. Compounds were screened in a competitive binding experiment using, respectively, membrane fractions prepared from rat brain homogenate expressing CB1 receptor and HEK293 cells expressing the human CB2 receptor. Experiments were conducted at a range of different concentrations and in duplicate. The competition binding experiment for CB1 and CB2 was performed in 96 well plates containing Standard Binding Buffer (50 mM Tris HCl, 1 mM EDTA, 3 mM MgCl2, 5 mg/ml fatty acid-free BSA, pH 7.4). The radioligand was [^3H]CP55940, and the reference compound was CP55940. A solution of the compound to be tested was prepared as a 1 mg/ml stock in DMSO and then diluted in Standard Binding Buffer by serial dilution. Radioligand was diluted to five times the assay concentration in Standard Binding Buffer. Aliquots (50 μl) of radioligand were dispensed into the wells of a 96-well plate containing 100 μl of Standard Binding Buffer. Then, duplicate 50-μl aliquots of the test and reference compound dilutions were added. Finally, crude membrane fractions of cells were resuspended in 3 ml of chilled Standard Binding Buffer and homogenized by several passages through a 26 gauge needle, then 50 μl were dispensed into each well. The 250-μl reactions were incubated at room temperature for 1.5 hours, and then harvested by rapid filtration onto Whatman GF/B glass fiber filters pre-soaked with 0.3% polyethyleneimine using a 96-well Brandel harverster. Four rapid 500-μl washes were performed. Filters were placed in 6-ml scintillation tubes and allowed to dry overnight. Bound radioactivity was harvested onto 0.3% polyethyleneimine-treated, 96-well filter mats using a 96-well Filtermate harvester. The filter mats were dried, then scintillant was melted onto the filters and the radioactivity retained on the filters counted in a Microbeta scintillation counter. Raw data (dpm) representing total radioligand binding (i.e., specific + non-specific binding) were plotted as a function of the logarithm of the molar concentration of the competitor (i.e., test or reference compound). Non-linear regression of the normalized (i.e., percent radioligand binding compared to that observed in the absence of test or reference compound) raw data was performed in Prism 4.0 (GraphPad Software) using the built-in three parameter logistic model describing ligand competition binding to radioligand-labeled sites: y = bottom + [(top-bottom)/(1 + 10 × -logIC50)] where bottom equals the residual radioligand binding measured in the presence of 10 μM reference compound (i.e., non-specific binding) and top equals the total radioligand binding observed in the absence of competitor. The log IC50 (i.e., the log of the ligand concentration that reduces radioligand binding by 50%) is thus estimated from the data and used to obtain the Ki by applying the Cheng-Prusoff approximation: Ki = IC50/(1 + [ligand]/KD) where [ligand] equals the assay radioligand concentration and KD equals the affinity constant of the radioligand for the target receptor.

A further test concerns the target T2, human 5-HT2A (Homo sapiens, UniProt P28223).
T2 construct: expressed in transfected cells; host or cells: HEK293 (Flp-In system, pcDNA5.0FRT)
The test is described as follows: Primary radioligand competitive binding assay, [3H]ketanserin. The following applies: ligand 10 μM, HEK293 cells. On the procedure: as §1
(§3) Radioligand binding data were obtained using National Institute of Mental Health's Psychoactive Drug Screening Program (NIMH/PDSP) using the same protocol described for CB1 and CB2 binding experiments. Transfected HEK293 (human 5-HT2A or rat 5-HT2C) cells were used. The radioligands were [^3H]ketanserin (0.5 nM) and [^3H]mesulergine (0.5 nM) for respectively 5-HT2A and 5-HT2C experiments. Non-specific binding was determined in the presence of 10 μM chlorpromazine for both 5-HT2A and 5-HT2C binding experiments. Cells were harvested and homogenized in 50 mM Tris HCl, 10 mM MgCl2, 0.1 mM EDTA, pH 7.4. Incubation of radioreceptor binding assay mixtures was 1.5 hours at room temperature in the dark.

For a further test, the target named is T3, Rat CB1 (Rattus norvegicus, UniProt P20272).
T3 construct: membrane fractions prepared from rat brain homogenate expressing CB1 receptor; from tissue; host or cells: rat brain homogenate
Briefly: Radioligand competitive binding, [3H]CP55940, rat brain homogenate. The note with it: for Rat CB1 (%) primary radioligand competitive binding: ligand 10 μM, rat brain homogenates; for Ki: NA: not active at 1 μM, read-out: Mean Ki Rat CB1. The procedure:
as §2

A further test concerns the target T4, rat 5-HT2C (Rattus norvegicus, UniProt P08909).
T4 construct: expressed in transfected cells; host or cells: HEK293 (Flp-In system, pcDNA5.0FRT)
T4 sequence (P08909 33-460): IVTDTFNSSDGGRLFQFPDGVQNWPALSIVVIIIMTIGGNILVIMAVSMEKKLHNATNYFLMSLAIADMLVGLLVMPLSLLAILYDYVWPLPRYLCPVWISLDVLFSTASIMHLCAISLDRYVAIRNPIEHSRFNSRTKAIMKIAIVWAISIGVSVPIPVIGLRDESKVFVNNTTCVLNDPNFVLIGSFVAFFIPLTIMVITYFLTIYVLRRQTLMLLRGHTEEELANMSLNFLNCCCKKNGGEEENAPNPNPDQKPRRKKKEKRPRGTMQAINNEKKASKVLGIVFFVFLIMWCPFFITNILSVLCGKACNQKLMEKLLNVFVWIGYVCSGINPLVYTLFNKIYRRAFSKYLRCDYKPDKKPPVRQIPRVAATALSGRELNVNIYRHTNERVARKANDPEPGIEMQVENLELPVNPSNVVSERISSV
The test is described as follows: Primary radioligand competitive binding assay, [3H]mesulergine. The note with it: ligand 10 μM, HEK293 cells. The procedure:
as §1, §3

The target in the next test is Human CB1 (Homo sapiens, UniProt P21554). The test is described as follows: GTPγ[35S] functional assay, CHO cell membrane extracts. The note with it: NA: not active at 1 μM.
For test [3], the target named is T1, Human CB2. Described as above. The class given is biochemical. The arrangement: expressed in transfected cells; host or cells: CHO cells (membrane extracts).

The structures appear in SMILES notation. Bounds are passed on as bounds.

T3 sequence (P20272 whole entry): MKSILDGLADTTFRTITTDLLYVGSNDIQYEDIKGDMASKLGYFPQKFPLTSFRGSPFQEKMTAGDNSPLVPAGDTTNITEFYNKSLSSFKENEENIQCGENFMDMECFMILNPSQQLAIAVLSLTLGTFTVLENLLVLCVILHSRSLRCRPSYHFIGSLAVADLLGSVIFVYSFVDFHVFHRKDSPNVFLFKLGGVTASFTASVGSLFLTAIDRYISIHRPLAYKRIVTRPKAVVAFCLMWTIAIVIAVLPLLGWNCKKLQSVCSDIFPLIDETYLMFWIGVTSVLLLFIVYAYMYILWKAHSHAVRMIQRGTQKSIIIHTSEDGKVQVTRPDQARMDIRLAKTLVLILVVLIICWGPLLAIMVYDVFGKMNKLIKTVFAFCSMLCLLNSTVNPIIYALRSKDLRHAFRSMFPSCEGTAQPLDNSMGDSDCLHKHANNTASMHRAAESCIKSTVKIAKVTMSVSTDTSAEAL
T1 sequence (P34972 whole entry): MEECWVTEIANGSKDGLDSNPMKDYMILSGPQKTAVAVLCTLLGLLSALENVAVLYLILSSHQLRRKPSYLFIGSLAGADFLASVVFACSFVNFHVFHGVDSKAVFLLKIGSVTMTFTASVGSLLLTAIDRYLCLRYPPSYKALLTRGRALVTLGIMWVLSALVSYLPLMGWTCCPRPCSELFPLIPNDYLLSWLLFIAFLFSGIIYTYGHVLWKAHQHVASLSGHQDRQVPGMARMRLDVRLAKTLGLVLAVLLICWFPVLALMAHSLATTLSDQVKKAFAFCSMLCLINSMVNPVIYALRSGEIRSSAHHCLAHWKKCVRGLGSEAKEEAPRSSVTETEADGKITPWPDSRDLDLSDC
T2 sequence (P28223 whole entry): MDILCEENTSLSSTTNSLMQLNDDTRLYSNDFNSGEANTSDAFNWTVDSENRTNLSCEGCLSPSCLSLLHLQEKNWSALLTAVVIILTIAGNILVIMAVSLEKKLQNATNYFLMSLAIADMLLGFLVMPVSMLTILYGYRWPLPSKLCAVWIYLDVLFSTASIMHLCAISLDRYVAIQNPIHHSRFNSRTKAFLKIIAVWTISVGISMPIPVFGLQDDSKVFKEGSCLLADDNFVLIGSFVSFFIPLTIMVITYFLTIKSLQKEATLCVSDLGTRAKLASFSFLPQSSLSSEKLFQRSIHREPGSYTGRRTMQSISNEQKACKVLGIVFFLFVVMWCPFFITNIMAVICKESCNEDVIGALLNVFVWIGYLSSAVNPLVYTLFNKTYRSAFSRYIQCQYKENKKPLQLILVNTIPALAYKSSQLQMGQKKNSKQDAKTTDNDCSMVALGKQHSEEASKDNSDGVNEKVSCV
Sequence of Human CB1 (P21554 whole entry): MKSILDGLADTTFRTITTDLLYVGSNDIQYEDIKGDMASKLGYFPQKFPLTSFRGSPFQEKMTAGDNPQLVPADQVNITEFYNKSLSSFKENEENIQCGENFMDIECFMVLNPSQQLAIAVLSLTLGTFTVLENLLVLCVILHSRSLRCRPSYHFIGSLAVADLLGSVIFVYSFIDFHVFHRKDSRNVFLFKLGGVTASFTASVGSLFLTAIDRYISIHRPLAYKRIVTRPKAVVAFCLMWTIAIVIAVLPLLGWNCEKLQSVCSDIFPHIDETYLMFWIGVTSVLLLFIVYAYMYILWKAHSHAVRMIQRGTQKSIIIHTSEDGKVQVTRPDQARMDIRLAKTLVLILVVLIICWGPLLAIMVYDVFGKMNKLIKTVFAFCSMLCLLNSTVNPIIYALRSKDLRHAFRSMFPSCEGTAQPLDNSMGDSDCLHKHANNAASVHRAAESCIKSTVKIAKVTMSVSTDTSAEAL
Description for Human CB1: Functional activity was evaluated using GTPγ[^35S] assay in CHO cell membrane extracts expressing recombinant human CB1 or CB2 receptors as we previously described [51]. Compounds were solubilized in 100% DMSO at a concentration of 10 mM within 4 hours of the first testing session. A predilution for the dose response curve was performed in 100% DMSO and then diluted 100 fold in assay buffer at a concentration 2 fold higher than the concentration to be tested. […] Membranes were mixed with GDP diluted in assay buffer to give 30 μM solution (volume:volume) and incubated for at least 15 min on ice. In parallel, GTPγ[^35S] (GE Healthcare, Catalogue number SJ1308) were mixed with the beads (PVT-WGA (GE Healthcare, RPNQ001)), diluted in assay buffer at 50 mg/ml (0.5 mg/10 μl) (volume:volume) just before starting the reaction. The following reagents were successively added in the wells of an Optiplate (Perkin Elmer): 50 μl of ligand, 20 μl of the membranes:GDP mix, 10 μl of assay buffer for agonist testing, and 20 μl of the GTPγ[^35S]:beads mix. The plates were covered with a topseal, shacked on an orbital shaker for 2 min, and then incubated for 1 hour at room temperature. Then the plates were centrifuged for 10 min at 2000 rpm and counted for 1 min/well with a PerkinElmer TopCount reader. […] For replicate determinations, the maximum variability tolerated in the test was of ± 20% around the average of the replicates.

As usually defined, the Ki is the dissociation constant of the complex between target and ligand, obtained from inhibition or displacement. `CCCCCn1c2ccccc2c2cc(C(=O)NCCc3ccc(Cl)cc3)ccc21` [NMP-139]: the “inhibition of T-type current” value in test [1] is on record as under 20%. In addition, on Human CB2 [2], the Ki stood at 3590 ± 424 nM. Besides, the “Human 5-HT2A (%) primary radioligand competitive binding” value on human 5-HT2A is listed as 7.7%. Further, the “Rat CB1 (%) primary radioligand competitive binding” value at Rat CB1 is recorded as 46.3%. Besides, the “Rat 5-HT2C (%) primary radioligand competitive binding” value on rat 5-HT2C was -7.8%.

On to `CCCCCn1c2c(c3ccccc31)C[C@H](C(=O)N1CCCCC1)NC2` [NMP-140], for which, at Human CB2 [2], the Ki worked out at 2870 ± 515 nM and the “Human CB2 (%) primary radioligand competitive binding” value was 71.1%. The “Human 5-HT2A (%) primary radioligand competitive binding” value on human 5-HT2A came to 11.2%. At Rat CB1, the Ki turned out to be 1250 ± 290 nM and the “Rat CB1 (%) primary radioligand competitive binding” value was 79.3%. Further, the “Rat 5-HT2C (%) primary radioligand competitive binding” value on rat 5-HT2C was -4.2%.

Usually EC50 stands for the concentration at which the effect is half-maximal. What is called Emax is the greatest response seen or fitted, relative to the assay's reference. Consider `CCCCCn1c2c(c3ccccc31)C[C@@H](C(=O)N1CCCCC1)NC2` [NMP-141], for which the “GTPγ[35S] functional assays Human CB1 EC50” value on Human CB1 is “did not show any agonistic or antagonistic activities”. Further, at Human CB2 [2], the Ki came to 481 ± 52.9 nM and the “Human CB2 (%) primary radioligand competitive binding” value is given as 88.7%. Besides, at Human CB2 [3] (read-out: GTPγ[35S] functional assays Human CB2 EC50), the EC50 was 112 ± 3.3 nM. For the same compound, the Emax on Human CB2 [3] (read-out: GTPγ[35S] functional assays Human CB2 Emax) turned out to be 51.9%. Further, the “Human 5-HT2A (%) primary radioligand competitive binding” value on human 5-HT2A was determined as 11.9%. Moreover, at Rat CB1, the Ki came to 906 ± 211 nM and the “Rat CB1 (%) primary radioligand competitive binding” value was found to be 88.6%. Further, the “Rat 5-HT2C (%) primary radioligand competitive binding” value on rat 5-HT2C was -8.4%.

The record behind these values is paper PMC3250956, “Functional characterization and analgesic effects of mixed cannabinoid receptor/T-type channel ligands” (Molecular Pain, 2011).
